Reference: patent publication US8758746B2, “Fertilization modulation compounds and process for implementing them” (Universite Joseph Fourier, priority 2009, dated 2014)
“Also recorded” adds a separate entry of the source.

Key:
[1] = test system: Sperm cells; test: Electron microscopy of sPLA2-induced acrosome reaction; assay type: cell-based, mouse; settings: uncapacitated sperm, incubated 10 min (200 nM sPLA2)
Protocol: Sperm cells were fixed with 2.5% glutaraldehyde in 0.1 M cacodylate buffer pH 7.4 during 2 hours at room temperature. Cells were then washed with buffer and post fixed with 1% Osmium tetroxyde in the same buffer during 1 hour at 4° C. After extensive washing with water cells were then stained with 0.5% uranile acetate pH 4 overnight at 4° C. Cells were then dehydrated through graded alcohol (30%-60%-90%-100%-100%-100%) and infiltrate with a mix of 1/1 epon/alcohol 100% during 1 hour before several bath of fresh epon (Flukka) during 3 hours. Finally, cells were centrifugated and immersed in fresh Epon and polymerised during 3 days at 60° C. Ultrathin sections of the cell pellet were cut with an ultramicrotome (Leica). Sections were post-stained with 4% uranile acetate and 1% lead citrate before being observed in an electron microscope at 80 kV (JEOL 1200EX).
It was important to check with electron microscopy (EM) that sPLA2 induced a morphologically normal acrosome reaction. The morphological criteria by which an acrosome reaction is evaluated to be normal are relatively limited: first, the outer acrosomal membrane should present vesiculation, second, the plasma membrane should fuse with the outer acrosomal membrane and present a characteristic double hair pin shape at the base of the acrosome (Green, D. P. (1978) The induction of the acrosome reaction in guinea-pig sperm by the divalent metal cation ionophore A23187. J. Cell Sci., 32:137-51.:137-151.)
For these experiments, uncapacitated sperm was used in order to reduce the contribution of spontaneous AR and 200 nM sPLA2 to get maximum sPLA2-induced AR. Sperm were incubated 10 min with mGX sPLA2 or the calcium ionophore A23187 and then fixed. In the presence of A23187, all acrosome-reacted sperm presented complete AR, with the 3 morphological criteria, as described above.

[2] = test system: Sperm cells; test: Detection of mGX sPLA2 released from sperm cells (TR-FIA); assay type: cell-based, mouse; settings: 90 min capacitation in 2% BSA, A23187 (5 μM) during the last 30 min
Protocol: Sperm cells from 4 caudae epididymes of mGX sPLA2 mice were allowed to swim for 15 min at 37° C. in 2.5 ml of M2 medium. Aliquots of 500 μl of sperm cells were then diluted in 4.5 ml of M16 medium containing 2% fatty acid free BSA and further incubated at 37° C. for 0, 45 and 90 min. In some assays, A23187 Ca2+ ionophore (5 μM) was added after the first 60 min of incubation and sperm cells were incubated for an additional 30 min. After incubation, sperm cells were spun down for 8 min at 1,200 rpm, and supernatants and cell pellets were flash frozen in liquid nitrogen and stored at −80° C. mGX sPLA2 protein expression and enzymatic activity were analyzed on crude cell supernatants and cell pellets after resuspension in 500 μl of M16 medium containing a cocktail of protease inhibitors (Complete inhibitor set, Roche Biochemicals) and lysis with a Branson 350 Sonifier Cell disrupter. […] Briefly, 5 to 50 μl of cell lysates or supernatants were incubated for 60 min in 300 μl of sPLA2 activity buffer (0.1 M Tris pH 8.0, 10 mM CaCl2, and 0.1% bovine serum albumin containing 100,000 DPM of [3H]oleate-radiolabeled E. coli membranes. Reactions were stopped by addition of 300 μl of stop buffer (0.1 M EDTA pH 8.0 and 0.1% fatty acid free bovine serum Albumin); mixtures were centrifuged at 10,000 g for 5 min, and the supernatants containing released [^3H]oleate were counted.

Compound: CNc1ccc2oc(C[C@H]3O[C@@]4(CC[C@H]3C)O[C@H]([C@H](C)C(=O)c3ccc[nH]3)[C@H](C)C[C@H]4C)nc2c1C(=O)O [A23187]
- morphology of induced acrosome reaction (electron microscopy) [1]: complete AR
- mGX level in the capacitation medium (TRFIA) [2]: two fold increase; also recorded: doubled
